Patent US20050004029A1, “Methods and compositions for treating vascular leak using hepatocyte growth factor” (priority 2001, published 2005)

What was measured:
[1] = tested on: Bovine Pulmonary Artery Endothelium; assay: Transendothelial electrical resistance (TER) across bovine pulmonary artery endothelium; type: cell-based; settings: VEGF 100 ng/ml, Sph 1-P 1 μM, HGF 20 ng/ml; for TER response in words: thrombin, 10-60 min; for changes in TER 30 min / changes in TER 60 min / changes in TER 10 min: vs vehicle control, ±SEM, thrombin 100 μM; for changes in TER 10 min: (+) increased, (−) decreased
Experimental: (§1) Bovine pulmonary artery endothelial cells were purchased from the American Type Culture Collection (ATCC®, Rockville, Md.) and utilized at passage 19-24. Cells were maintained in Medium 199 (Life Technologies, Rockville, Md.) supplemented with 20% (v/v) colostrum-free bovine serum (CFBS) (Irvine Scientific, Santa Ana, Calif.), 15 μg/ml endothelial cell growth supplement (Upstate Biotechnology, Lake Placid, N.Y.), 1% antibiotic and antimycotic, and 0.1 mM non-essential amino acids (Life Technologies). Human pulmonary artery endothelial cells were purchased from Clonetics (Walkersville, Md.), cultured in EBM-2 complete medium (Clonetics) and utilized at passage 5-10. Human alveolar epithelial cells (A549) were purchased from ATCC® and cultured in the same medium as the bovine endothelial cells, except that the endothelial cell growth supplement was omitted. All cells were maintained at 37° C. in a humidified atmosphere of 5% CO2 and 95% air.
Electrical resistance of EC monolayers was measured using electrical cell impedance sensor system (Applied Biophysics Inc., Troy, N.Y.) as described in Garcia, J. G. N. et al. (2000) J. Appl. Physiol. 89:2333-2343. Cells grown on gold microelectrodes (10^−3 cm^2) in polycarbonate wells act as insulating particles, and the resistance across the monolayers (transendothelial electrical resistance, or TER) is measured in real time. As cells adhere on the microelectrode and intercellular cell contacts are formed or in response to agents which increase junctional integrity, the TER increases (Garcia, J. G. N. et al. (2001) J. Clin. Invest. 108:689-711). In contrast, cell retraction, rounding, or loss of adhesion is reflected by decreases in TER (Garcia, J. G. N. et al. (2000) J. Appl. Physiol. 89:2333-2343). These measurements provide a highly sensitive biophysical assay that indicates the state of cell shape, focal adhesion, and endothelial barrier function (Giaever, I. and Keese, C. R. (1993) Nature 366:591-592; Tiruppathi, C. et al. (1992) Proc. Natl. Acad. Sci. USA 89:7919-7923). All electrical resistance data are presented as normalized values. Briefly, current was applied across the electrodes by a 4000 Hz AC voltage source with an amplitude of 1 V in series with a 1 MΩ resistance to approximate a constant current source (−1 μA). The small gold electrode and the larger counter electrode (1 cm^2) were connected to a phase-sensitive lock-in amplifier (5301A; EG&G Instruments Corp, Princeton, N.J.) with a built in differential preamplifier (5316A; EG&G Instruments Corp.). The in-phase and out-of-phase voltages between the electrodes were monitored in real time with the lock-in amplifier and converted to scalar measurements of transendothelial impedance, of which resistance was the primary focus. […] For some experiments, total TER was vectorially resolved into components reflecting resistance to current flow beneath the cell layer (α) and resistance to current flow between adjacent cells (Rb) as described in Garcia et al. (2000) supra utilizing the method of Giaiver and Keese which models the endothelial monolayer mathematically (Giaever, I. and Keese, C. R. (1993) Nature 366:591-592). Thus, changes in α reflect alterations in the net state of cell-matrix adhesion, whereas changes in Rb reflect alterations in the integrity of cell-cell adhesion. TER values from each microelectrode were pooled at discrete time points and plotted versus time as the mean±standard error of the mean (Garcia et al. (2000) supra).

[2] = tested on: Human pulmonary artery endothelial cells; assay: Transendothelial electrical resistance (TER) of human pulmonary artery endothelial cell monolayers; type: cell-based; settings: then HGF 20 ng/ml; for effect on HGF-induced increases in TER, in words: pretreatment LY294002 25 μM, UO126 10 μM, SB203580 20 μM, Ro-31-2880 10 μM
Experimental: as §1, with “air. Both endothelial cell types grew to contact-inhibited monolayers with the typical cobblestone morphology (Garcia, J. G. N. et al. (1995) J. Cell. Physiol. 163:510-522; Liu, F. et al. (2001) Am. J. Respir. Cell. Mol. Biol. 24:711-719).” for “air.”
Electrical resistance of EC monolayers was measured using electrical cell impedance sensor system (Applied Biophysics Inc., Troy, N.Y.) as described in Garcia, J. G. N. et al. (2000) J. Appl. Physiol. 89:2333-2343. Cells grown on gold microelectrodes (10^−3 cm^2) in polycarbonate wells act as insulating particles, and the resistance across the monolayers (transendothelial electrical resistance, or TER) is measured in real time. As cells adhere on the microelectrode and intercellular cell contacts are formed or in response to agents which increase junctional integrity, the TER increases (Garcia, J. G. N. et al. (2001) J. Clin. Invest. 108:689-711). In contrast, cell retraction, rounding, or loss of adhesion is reflected by decreases in TER (Garcia, J. G. N. et al. (2000) J. Appl. Physiol. 89:2333-2343). These measurements provide a highly sensitive biophysical assay that indicates the state of cell shape, focal adhesion, and endothelial barrier function (Giaever, I. and Keese, C. R. (1993) Nature 366:591-592; Tiruppathi, C. et al. (1992) Proc. Natl. Acad. Sci. USA 89:7919-7923). All electrical resistance data are presented as normalized values. Briefly, current was applied across the electrodes by a 4000 Hz AC voltage source with an amplitude of 1 V in series with a 1 MΩ resistance to approximate a constant current source (−1 μA). The small gold electrode and the larger counter electrode (1 cm^2) were connected to a phase-sensitive lock-in amplifier (5301A; EG&G Instruments Corp, Princeton, N.J.) with a built in differential preamplifier (5316A; EG&G Instruments Corp.). The in-phase and out-of-phase voltages between the electrodes were monitored in real time with the lock-in amplifier and converted to scalar measurements of transendothelial impedance, of which resistance was the primary focus. Transendothelial electrical resistance was monitored for 30 min to establish a baseline resistance (Ro) which, for human lung endothelium, was typically between 8 to 12×10^3 Ω (wells with R0<7×10^3 Ω or R0 >15×10^3 Ω were rejected). For some experiments, total TER was vectorially resolved into components reflecting resistance to current flow beneath the cell layer (α) and resistance to current flow between adjacent cells (Rb) as described in Garcia et al. (2000) supra utilizing the method of Giaiver and Keese which models the endothelial monolayer mathematically (Giaever, I. and Keese, C. R. (1993) Nature 366:591-592). Thus, changes in α reflect alterations in the net state of cell-matrix adhesion, whereas changes in Rb reflect alterations in the integrity of cell-cell adhesion. TER values from each microelectrode were pooled at discrete time points and plotted versus time as the mean±standard error of the mean (Garcia et al. (2000) supra). […]

p42/44 ERK = p42/44 ERK activation by phospho-specific immunoblotting; type: cell-based, human; settings: UO126 10 μM, 30 min; HGF 20 ng/ml, 15 min
Experimental: Endothelial cell monolayers grown to confluence in 12-well plates and challenged with HGF were lysed with 100 μl of 2×SDS sample buffer, and cell lysates were transferred into microcentrifuge tubes and boiled for 5 min. After a brief spin, proteins from 10 μl cell lysates were separated on 12% SDS-PAGE and transferred to nitrocellulose (Schleicher & Schuell, Keene, N.H.) (30V, 18 h). After blocking with PBST (PBS with 0.1% Tween 20) containing 5% non-fat milk for 1 hr, nitrocellulose blots were reacted with primary antibodies diluted in PBST containing 5% BSA for 1 hr, washed with PBST (3×10 min), incubated with peroxidase-conjugated secondary antibodies (goat anti-rabbit IgG, 1:10,000 dilution, Sigma; or goat anti-mouse IgG, 1:10,000 dilution, Bio-Rad Labs, Richmond, Calif.) diluted in PBST with 5% non-fat milk for 1 hr and again washed with PBST (3×10 min). Finally, immunoreactive proteins were detected using ECL. The relative intensities of the protein bands were quantified by scanning densitometry.
The MAP family of kinases (ERK1/2 and p38) are actively involved in agonist-induced endothelial cell actin reorganization and barrier regulation (Verin, A. D. et al. (2000) Am. J. Physiol: Lung Cell Molec. Phys. 279:L360-L370, 2000; Garcia, J. G. N. et al. (2001) J. Clin. Invest. 108:689-711) and have been noted to participate in HGF-mediated cell activation (Liang, C. C. and Chen, H. C. (2001) J. Biol. Chem. 276:21146-21152). These reports were confirmed in human endothelial cell monolayers incubated with HGF (20 ng/ml, for 1, 2, 5, 10, 15, 20, 30, 60, or 120 min) where activation of p42/44 ERK and p38 MAPK by HGF was detected by immunoblotting with antibodies that only recognize the phosphorylated (activated) forms of ERK or p38 MAPK. The activation of ERKs was evident at 5 min, maximal after 10-15 min with a gradual decline thereafter, but remaining sustained above basal levels for more than 2 hrs. […] The onset of HGF-mediated activation of p38 MAPK was similar to ERK, with plateau at 10-15 min. However, the duration of this response was much more truncated than ERK activation, beginning to decline by 20 min and returning to basal value by 1 hr.

[3] = tested on: human endothelial monolayers; assay: F-actin immunofluorescent microscopy (cortical actin ring); type: cell-based; settings: LY294002 25 μM, 1 hr or SB203580 20 μM, 30 min; HGF 20 ng/ml
Experimental: Endothelial cell monolayers grown on gelatinized cover slips were rinsed with M199 and incubated with agonists in the same medium in a 37° C. incubator (5% CO2). Monolayers were then rinsed with PBS (3×2 min), fixed in 4% paraformaldehyde for 10 min, again rinsed with PBS (3×2 min), and permeabilized with 0.25% Triton X-100 for 5 min. Cells were then washed briefly with PBS (3×2 min), blocked with PBS containing 2% BSA for 30 min and incubated with 1 Unit/mL of Texas Red-X phalloidin (Molecular Probes, Eugene, Oreg.), β-catenin antibody (Transduction Laboratories, Lexington, Ky.), glycogen synthase kinase-3 β (GSK-3β) (Santa Cruz Biotechnology, Inc., Santa Cruz, Calif.), or mono-phosphorylated MLC antisera (see Garcia, J. G. N. et al. (2001) J. Clin. Invest. 108:689-711) for 1 hr. After washing with PBS (3×2 min), cover slips were mounted on slides using SlowFade mounting medium (Molecular Probes). Cells were analyzed using a 60× oil objective on a Nikon Eclipse TE 300 microscope. Images were captured by Sony Digital Photo camera DKC 5000. […]
The effect of HGF on the spatial localization of polymerized actin in human endothelial monolayers was investigated by immunofluorescent microscopy. […] F-actin staining was assessed with Texas red phalloidin and myosin light chain staining evaluated with anti-monophosphorylated myosin light chain polyclonal antibody.

Row | Molecule | TER response in words [1] | changes in TER 30 min [1] | changes in TER 60 min [1] [%] | changes in TER 10 min [1] | effect on HGF-induced increases in TER, in words [2] | further results
1 | VEGF | early increase in TER, which then falls to produce mild barrier dysfunction | 0% ± 3% | −20 ± 4 | +30 ± 4% | – | –
2 | O=c1cc(N2CCOCC2)oc2c(-c3ccccc3)cccc12 [LY294002, reference compound] | – | – | – | – | – | reduction of HGF-induced increase in TER ([2]; inhibitor pretreatment (LY294002 25 μM; Ro-31-2880 10 μM)): > 50%
3 | Thrombin | rapidly decreases TER values which begin to abate after 30 min | −50 ± 4% | −14 ± 4 | +30 ± 3% | – | –
4 | N#CC(=C(/N)Sc1ccccc1N)/C(C#N)=C(/N)Sc1ccccc1N [UO126, reference compound] | – | – | – | – | significantly blocked | effect on HGF-stimulated ERK activity (p42/44 ERK): completely abolished
5 | C[S+]([O-])c1ccc(-c2nc(-c3ccncc3)c(-c3ccc(F)cc3)[nH]2)cc1 (stereo not shown) [SB203580, reference compound] | – | – | – | – | significantly blocked | effect on HGF-elicited cortical actin ring formation / actin remodeling [3]: significantly attenuated
